Measurements taken from article PMC6014687 (Journal of Medicinal Chemistry, 2016).
Several values for one entry are separate records, joined by “and”; a condition that tells them apart may be missing. Identical values can stand only once. Like-named read-outs stand apart in the source and are kept apart here.

Assays:
[1] = tested on: SK-OV-3 cells
[2] = target: recombinant human pirin (Homo sapiens, UniProt O00625)
[3] = tested on: WM266.4 cells; conditions: WM266.4, 30 h
[4] = tested on: SK-OV-3 cells; assay: cells; conditions: Homo sapiens, SK-OV-3, 96 h
[5] = tested on: SK-OV-3 human ovarian carcinoma xenograft; conditions: female, NCr athymic, mouse, in vivo
[6] = in vivo; conditions: female, BALB/c, mouse, 5 mg/kg; for AUC(0-inf): AUCinf; for AUC(0-t): AUClast
Experimental: Experimental work was done in accordance with Home Office regulations under the
UK National Cancer Research CR I Guidelines with local Ethical Committee approval.9
Female BALB/c and Ncr-Foxn1nu mice were obtained from Charles River (Margate, UK).
Animals were adapted to laborator y conditions for at least 1 week prior to dosing and were
allowed food and water ad libitum. Compounds were administered iv or po (0.1 m L/10 g) in
hydrox yprop yl beta c ycl odextrin in 50 mM sodium citrate buff er (Ncr-Foxn1nu PK). Blood
spotted onto Whatman FTA-DMPK B cards (VWR) together with a calibration curve and
qualit y controls spiked in control blood. Cards were allowed to dr y at room temperature for at
least 2 h. 6 mm discs were punched from the cards and extracted with 200 µ L methanol
containing 500 nM olo moucine as an internal standard. Following centrifugation, extracts
were anal yzed b y multiple reaction monitoring of precursor and product ions by LC-ES I-
% formic acid and methanol on a Phenomenex (Macclesfi eld, UK) Kinet exTM C18, 5 cm x
2.6 µ m, 2.1 mm i.d UHP LC column. Pharmac okinetic parameters were derived from non -

[7] = in vivo; conditions: female, mouse, po, 20 mg/kg
[8] = physchem; conditions: pH 7.4
[9] = read-out: SK-OV-3 pGI50±SEM (converted)

Sequence of recombinant human pirin (O00625 whole entry): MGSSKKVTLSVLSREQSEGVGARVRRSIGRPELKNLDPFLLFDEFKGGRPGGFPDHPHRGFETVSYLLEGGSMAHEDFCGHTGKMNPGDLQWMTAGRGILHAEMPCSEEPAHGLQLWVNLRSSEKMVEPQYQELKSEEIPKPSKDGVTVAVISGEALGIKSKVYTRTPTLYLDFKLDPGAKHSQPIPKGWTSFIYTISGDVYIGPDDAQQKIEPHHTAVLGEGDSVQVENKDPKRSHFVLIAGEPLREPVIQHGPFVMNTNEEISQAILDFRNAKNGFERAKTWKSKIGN

| Compound | GI50 ([4]; read-out: SK-OV-3 GI50) [nM] | GI50 [4, 9] [nM] | also measured |
| --- | --- | --- | --- |
| Cc1ccc(NC(=O)c2cccc3c2OCCO3)cc1NC(=O)c1ccc2nc(OCCN3CCCC3)ccc2c1 [Compound 28, N-(5-(2,3-Dihydrobenzo[b][1,4]dioxine-5-carboxamido)-2-methylphenyl)-2-(2-(pyrrolidin-1-yl)ethoxy)quinoline-6-carboxamide] | > 1000 | > 1000 | SK-OV-3 pGI50±SEM [1]: <6; AS (apparent stoichiometry) [2]: 1.18 and 1.11 and 1.80; antimigratory activity [3]: no measurable antimigratory activity |
| Cc1ccc(NC(=O)c2ccc3c(c2)OCCO3)cc1NC(=O)c1ccc2nc(OCCCN(C)C)ccc2c1 [Compound 22, N-(5-(2,3-Dihydrobenzo[b][1,4]dioxine-6-carboxamido)-2-methylphenyl)-2-(3-(dimethylamino)propoxy)quinoline-6-carboxamide] | 1.1 | 1.15 | – |
| Cc1ccc(NC(=O)c2ccc3c(c2)OCCO3)cc1NC(=O)c1ccc2nc(OCCN3CCCC3)ccc2c1 [Compound 26, N-(5-(2,3-Dihydrobenzo[b][1,4]dioxine-6-carboxamido)-2-methylphenyl)-2-(2-(pyrrolidin-1-yl)ethoxy)quinoline-6-carboxamide] | – | – | total tumor concentrations [5]: ≤ 940 nM; half-life at 24 h [6]: 5.3 h; AUC(0-inf) ([6]; iv): 14.8 µM·h; AUC(0-t) ([6]; iv): 14.1 µM·h; clearance ([6]; iv, Cl): 9.8 mL/min/kg; Cmax ([6]; iv): 3830 nM; Vd ([6]; iv, Vss): 3.26 L/kg; Vd at 24 h ([6]; iv, Vss): 4.2 L/kg; Vd ([6]; iv, Vz): 5.78 L/kg; clearance at 24 h ([6]; iv, blood Cl): 9.2 mL/min/kg; AUC(0-t) at 24 h ([6]; po, AUC0–24h PO): 5.8 µM·h; AUC(0-inf) ([6]; po): 6.09 µM·h; AUC(0-t) ([6]; po): 5.02 µM·h; Cmax ([6]; po): 828 nM; AUC(0-inf) ([7]; Ncr-Foxn1nu (athymic), AUCinf): 1.58 µM·h; AUC(0-t) ([7]; Ncr-Foxn1nu (athymic), AUClast): 1.53 µM·h; Cmax ([7]; Ncr-Foxn1nu (athymic), Cmax): 439 nM; AUC(0-t) at 24 h ([7]; athymic (Ncr-Foxn1nu), AUC0–24h PO): 1.9 µM·h; chromatographic logD [8]: 2.1 |
| Cc1ccc(NC(=O)c2ccc3c(c2)OCCO3)cc1NC(=O)c1ccc2nc(OCCN)ccc2c1 [Compound 29, 2-(2-Aminoethoxy)-N-(5-(2,3-dihydrobenzo[b][1,4]dioxine-6-carboxamido)-2-methylphenyl)quinoline-6-carboxamide] | 3.1 | 3.09 | – |
| Cc1ccc2cc(C(=O)Nc3c(C)ccc(NC(=O)c4ccc5c(c4)OCCO5)c3C)ccc2n1 [Compound 11, N-(3-(2,3-Dihydrobenzo[b][1,4]dioxine-6-carboxamido)-2,6-dimethylphenyl)-2-methylquinoline-6-carboxamide] | > 1000 | > 1000 | – |
| CCC(=O)NCCOc1ccc2cc(C(=O)Nc3cc(NC(=O)c4ccc5c(c4)OCCO5)ccc3C)ccc2n1 [Compound 27] | 9.1 | 9.12 | – |
| COCCOc1ccc2cc(C(=O)Nc3cc(NC(=O)c4ccc5c(c4)OCCO5)ccc3C)ccc2n1 [Compound 21, N-(5-(2,3-Dihydrobenzo[b][1,4]dioxine-6-carboxamido)-2-methylphenyl)-2-(2-methoxyethoxy)quinoline-6-carboxamide] | 4.3 | 4.27 | – |
| Cc1ccc(NC(=O)c2ccc3c(c2)OCCO3)cc1NC(=O)c1ccc2nc(OCCN3CCCCC3)ccc2c1 [Compound 25, N-(5-(2,3-Dihydrobenzo[b][1,4]dioxine-6-carboxamido)-2-methylphenyl)-2-(2-(piperidin-1-yl)ethoxy)quinoline-6-carboxamide] | 1.1 | – | – |
| Cc1ccc(NC(=O)c2ccc3c(c2)OCCO3)cc1NC(=O)c1ccc2nc(OCCCN3CCOCC3)ccc2c1 [Compound 23, N-(5-(2,3-Dihydrobenzo[b][1,4]dioxine-6-carboxamido)-2-methylphenyl)-2-(3-morpholinopropoxy)quinoline-6-carboxamide] | 7.4 | 7.41 | – |
| Cc1ccc2cc(C(=O)Nc3cc(NC(=O)c4ccc5c(c4)OCCO5)c(C)cc3C)ccc2n1 [Compound 12, N-(5-(2,3-Dihydrobenzo[b][1,4]dioxine-6-carboxamido)-2,4-dimethylphenyl)-2-methylquinoline-6-carboxamide] | > 1000 | > 1000 | – |
| Cc1ccc2cc(C(=O)Nc3cc(NS(=O)(=O)c4ccc5c(c4)OCCO5)ccc3C)ccc2n1 [Compound 14, N-(5-(2,3-Dihydrobenzo[b][1,4]dioxine-6-sulfonamido)-2-methylphenyl)-2-methylquinoline-6-carboxamide] | > 1000 | > 1000 | – |
| Cc1ccc(NC(=O)c2ccc3c(c2)OCCO3)cc1NC(=O)c1ccc2ncccc2c1 [Compound 15, N-(5-(2,3-Dihydrobenzo[b][1,4]dioxine-6-carboxamido)-2-methylphenyl)quinoline-6-carboxamide] | 8.6 | 2.51 | – |
| Cc1ccc2cc(C(=O)Nc3cc(NC(=O)c4cccc5c4OCCO5)ccc3C)ccc2n1 [Compound 6, N-(5-(2,3-Dihydrobenzo[b][1,4]dioxine-5-carboxamido)-2-methylphenyl)-2-methylquinoline-6-carboxamide] | > 1000 | > 1000 | – |
